What all share (assay): DTP human tumour cell line panel, 48 h
Assay [1] deals with 786-0.
Assay [2] concerns CCRF-CEM.
Assay [3] concerns DU-145.
Assay [4] deals with HCT-116.
Assay [5] has as its system HT-29.
In assay [6] the test system is Hs-578T.
Assay [7] deals with IGROV-1.
The test system of assay [8] is KM12.
The test system of assay [9] is M14.
The subject of assay [10] is MCF7.
For assay [11], the system named is MDA-MB-231.
Assay [12] concerns Malme-3M.
In assay [13] the test system is OVCAR-3.
The test system of assay [14] is SF-268.
For assay [15], the system named is SF-295.
Assay [16] concerns SF-539.
Assay [17] relates to SK-MEL-28.
The subject of assay [18] is SK-MEL-2.
Assay [19] relates to SNB-19.
Assay [20] deals with UACC-62.

Structures are written as SMILES.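 Dose response: 5 concentrations. Exposure: 48 h. Format: 96-well plates. Endpoint: linear interpolation; highest concentration if not reached. Here, GI50 denotes the concentration required for 50% inhibition of growth.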 Active and inactive are the calls of the source. Rule as the data show it: active = GI50 up to about 1.1 µM and inactive = higher. Where only a bound is given, the exact number is not on record here.

For `O=C1c2c(O)ccc(O)c2C(=O)c2c(NCCNC(=O)C(O)C(O)C(O)C(O)CO)ccc(NCCNC(=O)C(O)C(O)C(O)C(O)CO)c21` (stereo not given), the GI50 (commonly the concentration giving 50% growth inhibition) in assay [1] is < 0.01 µM (active); in [2], 0.0316 µM (active); in assay [3], < 0.01 µM (active); in assay [4], 0.0332 µM (active); in assay [5], 0.03 µM (active); in assay [6], 0.213 µM (active). In addition, the GI50 was < 0.0383 µM (active) in [7]; 0.0277 µM (active) in assay [8]; < 0.0195 µM (active) in [9]; < 0.01 µM (active) in [10]; 0.0467 µM (active) in [11]; 0.212 µM (active) in assay [12]. Also, the GI50 was 0.279 µM (active) in assay [13]; 0.0241 µM (active) in [14]; < 0.01 µM (active) in [15]; < 0.01 µM (active) in assay [16]; 0.211 µM (active) in assay [17]; 1.08 µM (active) in [18]. The concentration for 50% growth inhibition (GI50) in assay [19] was < 0.01 µM (active); in assay [20], 0.0154 µM (active).
For the compound `CCOC(=O)c1cn2c(n1)sc1cc(Cl)ccc12`, the GI50 in assay [1] is 6.58 µM (inactive); in [2] it was 5.45 µM (inactive); in assay [3], 10.7 µM (inactive); in assay [4] it was 3.37 µM (inactive); in assay [5], 17 µM (inactive); in assay [6], 24.7 µM (inactive). Further, the GI50 is 24.7 µM (inactive) in assay [7]; 4.54 µM (inactive) in assay [8]; 18.3 µM (inactive) in assay [9]; 4.2 µM (inactive) in assay [10]; > 100 µM (inactive) in [11]; 13.1 µM (inactive) in assay [12]. Besides, the GI50 was 14.1 µM (inactive) in assay [13]; 30.6 µM (inactive) in assay [14]; 35.2 µM (inactive) in assay [15]; 5.78 µM (inactive) in assay [16]; 76.2 µM (inactive) in assay [17]; > 100 µM (inactive) in [18]. Moreover, the values for the GI50 in assay [19] and in assay [20] were 8.28 µM (inactive) and 59.7 µM (inactive), respectively.
Regarding `COc1cccc(C2c3cc4c(cc3OC(C)(O)C2C)OCO4)c1O` (stereo not given), the GI50 in assay [1] was 4.44 µM (inactive); in [2], 4.45 µM (inactive); in assay [3] it was 4.48 µM (inactive); in assay [4], 3.64 µM (inactive); in [5] it was 3.88 µM (inactive); in assay [6], 2.68 µM (inactive). For the same compound, the GI50 was 5.2 µM (inactive) in assay [7]; 3.33 µM (inactive) in assay [8]; 3.48 µM (inactive) in assay [9]; 4.25 µM (inactive) in [10]; 0.897 µM (active) in assay [11]; 6.18 µM (inactive) in [12]. In addition, the GI50 is 2.81 µM (inactive) in [13]; 8.79 µM (inactive) in assay [14]; 2.96 µM (inactive) in assay [15]; 2.67 µM (inactive) in assay [16]; 10.5 µM (inactive) in [17]; 9.89 µM (inactive) in [18]. Moreover, the GI50 in assay [19] was 5.2 µM (inactive); in assay [20] it was 5.12 µM (inactive).
As to `Cc1ccc(C(=O)/C=C2/Nc3ccccc3NC2=O)c(C)c1`, the GI50 in assay [1] was 4.19 µM (inactive); in [2], 62.5 µM (inactive); in assay [3] it was 30.1 µM (inactive); in [4], 11.8 µM (inactive); in assay [5], 23.4 µM (inactive); in assay [6], 16.2 µM (inactive). Besides, the GI50 in assay [7] is 12.7 µM (inactive); in [8], 20.8 µM (inactive); in assay [9], 49.2 µM (inactive); in assay [10], 13.3 µM (inactive); in assay [11], 14.3 µM (inactive); in assay [12] it was 54.6 µM (inactive). Moreover, the GI50 in assay [13] is 32 µM (inactive); in assay [14] it was 6.95 µM (inactive); in assay [15] it was 9.46 µM (inactive); in assay [16], 5.04 µM (inactive); in [17], 14.7 µM (inactive); in [18] it was 46.5 µM (inactive). Also, the GI50 in [19] was 9.71 µM (inactive); in assay [20], 5.37 µM (inactive).
As for `COc1ccc(-c2cc(=O)c3c(O)c(OC)c(OC)c(OC)c3o2)cc1OC` [5-DEMETHYLNOBILETIN], the GI50 was 58.7 µM (inactive) in [1]; > 100 µM (inactive) in assay [2]; > 100 µM (inactive) in assay [3]; > 100 µM (inactive) in assay [4]; > 100 µM (inactive) in assay [5]; 12.6 µM (inactive) in assay [6]. Also, the GI50 is 53.1 µM (inactive) in assay [7]; > 100 µM (inactive) in assay [8]; > 100 µM (inactive) in assay [9]; > 100 µM (inactive) in [10]; > 100 µM (inactive) in assay [11]; > 100 µM (inactive) in [12]. For the same compound, the GI50 is > 100 µM (inactive) in assay [13]; 10.1 µM (inactive) in assay [14]; > 100 µM (inactive) in [15]; 86.5 µM (inactive) in assay [16]; > 100 µM (inactive) in assay [17]; 91.2 µM (inactive) in assay [18]. The GI50 in [19] and in assay [20] was > 100 µM (inactive) each time.
For `CC(=O)OC(Cc1c(O)c2c(C)cccc2oc1=O)C(C)(C)O` (stereo not given), the GI50 in [1] is > 100 µM (inactive); in [2], 88.5 µM (inactive); in assay [3], > 100 µM (inactive); in assay [4], 53.6 µM (inactive); in assay [5], > 100 µM (inactive); in [6], > 100 µM (inactive). Further, the GI50 in assay [7], in assay [8], in assay [9], in [10], in assay [11] and in assay [12] was > 100 µM (inactive) throughout. The GI50 in assay [13] was > 100 µM (inactive); in [14], 91.4 µM (inactive); in assay [15], > 100 µM (inactive); in [16], > 100 µM (inactive); in [17], 88.1 µM (inactive); in assay [18], > 100 µM (inactive). Also, the GI50 was > 100 µM (inactive) in [19] and 77.4 µM (inactive) in [20].
As for `COC(=O)[C@@H]1CN(C(=O)CCc2ccccc2)C(=O)N1C(=O)OCc1ccccc1`, the GI50 was > 100 µM (inactive) in assay [1]; > 100 µM (inactive) in assay [2]; > 100 µM (inactive) in [3]; > 100 µM (inactive) in [4]; > 100 µM (inactive) in assay [5]; 57.1 µM (inactive) in assay [6]. Besides, the GI50 in assay [7], in assay [8], in assay [9], in assay [10], in assay [11] and in [12] was > 100 µM (inactive) each time. The GI50 in assay [13] is > 100 µM (inactive); in assay [14], 40 µM (inactive); in assay [15] it was > 100 µM (inactive); in assay [16], > 100 µM (inactive); in assay [17], > 100 µM (inactive); in [18], > 100 µM (inactive). Further, the GI50 in assay [19] and in assay [20] was > 100 µM (inactive) each time.
Take `O=C(O)CCn1cnc2c(S)ncnc21`: the GI50 in [1], in assay [2], in [3], in assay [4], in assay [5] and in assay [6] was > 100 µM (inactive) in each case. The GI50 in assay [7], in assay [8], in [9], in [10], in [11] and in assay [12] was > 100 µM (inactive) in each case. Also, the GI50 in [13], in [14], in [15], in assay [16], in [17] and in assay [18] was > 100 µM (inactive) each time. Moreover, the GI50 in assay [19] and in assay [20] was > 100 µM (inactive) throughout.
Regarding `Cc1ccc(S(=O)(=O)N/N=C/C(=C/c2ccc(Cl)cc2)CC(/C=N/NS(=O)(=O)c2ccc(C)cc2)=C\c2ccc(Cl)cc2)cc1`, the GI50 in [1] is 2.19 µM (inactive); in assay [2], 2.98 µM (inactive); in assay [3], 25.8 µM (inactive); in assay [4], 4.6 µM (inactive); in assay [5], 5.51 µM (inactive); in [6], 3.68 µM (inactive). Also, the GI50 in assay [7] was 5.81 µM (inactive); in assay [8], 7.87 µM (inactive); in assay [9], 10.8 µM (inactive); in assay [10] it was 2.86 µM (inactive); in assay [11], 10.2 µM (inactive); in assay [12], 8.2 µM (inactive). Also, the GI50 in assay [13] is 3.07 µM (inactive); in assay [14], 5.06 µM (inactive); in [15], 14 µM (inactive); in [16] it was 12.1 µM (inactive); in assay [17] it was 5.52 µM (inactive); in [18], 7.76 µM (inactive). Besides, the GI50 is 8.77 µM (inactive) in assay [19] and 5.08 µM (inactive) in assay [20].
As to `O=[N+]([O-])c1ccc(C(O)(C#CCN2CCCC2)c2ccccc2)cc1` (stereo not given), the GI50 in assay [1] was 39.4 µM (inactive); in assay [2], 24.5 µM (inactive); in assay [3], > 100 µM (inactive); in assay [4] it was 46.6 µM (inactive); in assay [5], 17 µM (inactive); in [6], 28.9 µM (inactive). For the same compound, the GI50 in assay [7] was 25.8 µM (inactive); in [8] it was 41.8 µM (inactive); in assay [9] it was 17.5 µM (inactive); in assay [10], 53.7 µM (inactive); in [11], 43 µM (inactive); in assay [12] it was 16.6 µM (inactive). Besides, the GI50 in assay [13] is 49 µM (inactive); in assay [14] it was 27 µM (inactive); in assay [15] it was 30.4 µM (inactive); in [16], 82 µM (inactive); in [17], 17.6 µM (inactive); in [18], 24.5 µM (inactive). Also, the figures for the GI50 in [19] and in assay [20] were 98.2 µM (inactive) and 24.7 µM (inactive), respectively.

The values above are taken from ChEMBL document CHEMBL1201862, “PubChem BioAssay data set” (2004).
